Source: ChEMBL document CHEMBL5465560, “Selectivity Literature for EUbOPEN Chemogenomic Library” (2024)

Tests used:
[1] = molecular target: Mitogen-activated protein kinase kinase kinase 9 (Homo sapiens) (UniProt P80192); details: at 10 µM
[2] = molecular target: Serine/threonine-protein kinase PLK1 (Homo sapiens, UniProt P53350); details: at 10 µM
[3] = molecular target: T1, Ephrin type-B receptor 3 (Homo sapiens) (UniProt P54753); assay: Selectivity interaction (KinomeScan (DiscoverX)) EUB0000229b EPHB3; details: at 10 µM
T1 sequence (whole entry): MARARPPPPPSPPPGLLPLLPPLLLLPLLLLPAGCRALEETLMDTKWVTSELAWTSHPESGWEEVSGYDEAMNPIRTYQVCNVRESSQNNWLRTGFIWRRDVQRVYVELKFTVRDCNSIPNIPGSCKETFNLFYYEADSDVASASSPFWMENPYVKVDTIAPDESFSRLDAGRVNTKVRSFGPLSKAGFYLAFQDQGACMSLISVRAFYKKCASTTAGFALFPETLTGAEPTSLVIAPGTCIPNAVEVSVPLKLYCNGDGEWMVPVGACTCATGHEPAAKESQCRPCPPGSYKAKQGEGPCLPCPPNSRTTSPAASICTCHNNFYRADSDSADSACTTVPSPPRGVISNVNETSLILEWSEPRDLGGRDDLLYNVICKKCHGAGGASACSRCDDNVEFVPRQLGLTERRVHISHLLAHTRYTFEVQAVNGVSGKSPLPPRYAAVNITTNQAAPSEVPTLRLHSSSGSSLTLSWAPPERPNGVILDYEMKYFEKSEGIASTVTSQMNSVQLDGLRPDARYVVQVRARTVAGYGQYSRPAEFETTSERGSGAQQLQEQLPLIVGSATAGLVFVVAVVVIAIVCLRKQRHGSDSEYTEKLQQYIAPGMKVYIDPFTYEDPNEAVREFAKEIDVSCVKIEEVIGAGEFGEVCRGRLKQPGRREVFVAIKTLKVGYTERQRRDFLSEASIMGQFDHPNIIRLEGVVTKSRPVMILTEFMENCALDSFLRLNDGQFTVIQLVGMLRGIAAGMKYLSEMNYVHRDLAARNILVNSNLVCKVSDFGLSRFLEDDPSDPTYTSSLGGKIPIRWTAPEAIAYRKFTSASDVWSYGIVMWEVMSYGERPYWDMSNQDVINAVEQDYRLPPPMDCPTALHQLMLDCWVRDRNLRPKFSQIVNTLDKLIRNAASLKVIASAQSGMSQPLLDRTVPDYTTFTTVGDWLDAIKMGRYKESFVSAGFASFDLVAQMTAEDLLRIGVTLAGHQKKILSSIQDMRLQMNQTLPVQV

[4] = molecular target: T2, Serine/threonine-protein kinase Sgk2 (Homo sapiens) (UniProt Q9HBY8); assay: Selectivity interaction (ActivX KiNativ screen (kinase selectivity in THP-1 cell lysates)) EUB0000639a SGK2; assay type: subcellular; details: lysate
T2 sequence (whole entry): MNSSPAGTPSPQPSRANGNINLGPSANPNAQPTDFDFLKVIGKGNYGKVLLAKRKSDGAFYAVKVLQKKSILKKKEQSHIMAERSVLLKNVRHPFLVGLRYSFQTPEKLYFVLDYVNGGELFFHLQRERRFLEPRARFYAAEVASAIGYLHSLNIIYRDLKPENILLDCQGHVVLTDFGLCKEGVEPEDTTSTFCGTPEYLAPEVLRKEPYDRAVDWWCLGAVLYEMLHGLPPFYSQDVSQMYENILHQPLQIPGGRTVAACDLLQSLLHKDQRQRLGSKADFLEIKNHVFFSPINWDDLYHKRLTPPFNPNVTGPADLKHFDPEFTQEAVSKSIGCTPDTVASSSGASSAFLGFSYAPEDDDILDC

[5] = molecular target: Ribosomal protein S6 kinase alpha-3 (Homo sapiens, UniProt P51812); assay: Selectivity interaction (ActivX KiNativ screen (kinase selectivity in THP-1 cell lysates)) EUB0000639a RPS6KA3; assay type: subcellular; details: lysate, at 0.01 µM
[6] = molecular target: T3, Serine/threonine-protein kinase 3 (Homo sapiens) (UniProt Q13188); assay: Selectivity interaction (KinomeScan (DiscoverX)) EUB0000607a STK3; details: at 10 µM
T3 sequence (whole entry): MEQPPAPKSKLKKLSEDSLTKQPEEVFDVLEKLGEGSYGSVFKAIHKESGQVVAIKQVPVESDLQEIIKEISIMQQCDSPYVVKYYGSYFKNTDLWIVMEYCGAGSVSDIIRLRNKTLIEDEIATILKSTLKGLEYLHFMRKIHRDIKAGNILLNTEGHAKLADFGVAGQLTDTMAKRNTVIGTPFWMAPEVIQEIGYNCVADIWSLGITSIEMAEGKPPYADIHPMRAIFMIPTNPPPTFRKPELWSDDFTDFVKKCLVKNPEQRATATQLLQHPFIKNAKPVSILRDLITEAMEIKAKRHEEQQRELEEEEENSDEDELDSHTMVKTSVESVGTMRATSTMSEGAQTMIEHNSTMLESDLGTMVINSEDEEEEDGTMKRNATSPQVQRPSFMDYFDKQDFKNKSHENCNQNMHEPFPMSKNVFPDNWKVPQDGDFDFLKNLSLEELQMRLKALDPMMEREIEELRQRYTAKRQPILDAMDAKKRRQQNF

[7] = molecular target: PAS domain-containing serine/threonine-protein kinase (Homo sapiens) (UniProt Q96RG2); assay: Selectivity interaction (SelectScreen profiling (Invitrogen)) EUB0000607a PASK; details: at 2 µM
[8] = molecular target: Macrophage-stimulating protein receptor (Homo sapiens, UniProt Q04912); assay: Selectivity interaction (KinomeScan (DiscoverX)) EUB0001049a MST1R; details: at 1 µM
[9] = molecular target: Tyrosine-protein kinase BTK (Homo sapiens, UniProt Q06187); assay: Selectivity interaction (KinomeScan (DiscoverX)) EUB0000595a BTK; details: at 10 µM
[10] = molecular target: Rho-associated protein kinase 2 (Homo sapiens, UniProt O75116); assay: Selectivity interaction (KinomeScan (DiscoverX)) EUB0000045b ROCK2
[11] = molecular target: Serine/threonine-protein kinase 10 (Homo sapiens) (UniProt O94804); assay: Selectivity interaction (ActivX KiNativ screen (ex vivo kinase selectivity in human PBMCs)) EUB0001619a STK10; assay type: cell-based; details: PBMC, at 1 µM
Chain of Serine/threonine-protein kinase 10 (Homo sapiens) (O94804 whole entry, looked up): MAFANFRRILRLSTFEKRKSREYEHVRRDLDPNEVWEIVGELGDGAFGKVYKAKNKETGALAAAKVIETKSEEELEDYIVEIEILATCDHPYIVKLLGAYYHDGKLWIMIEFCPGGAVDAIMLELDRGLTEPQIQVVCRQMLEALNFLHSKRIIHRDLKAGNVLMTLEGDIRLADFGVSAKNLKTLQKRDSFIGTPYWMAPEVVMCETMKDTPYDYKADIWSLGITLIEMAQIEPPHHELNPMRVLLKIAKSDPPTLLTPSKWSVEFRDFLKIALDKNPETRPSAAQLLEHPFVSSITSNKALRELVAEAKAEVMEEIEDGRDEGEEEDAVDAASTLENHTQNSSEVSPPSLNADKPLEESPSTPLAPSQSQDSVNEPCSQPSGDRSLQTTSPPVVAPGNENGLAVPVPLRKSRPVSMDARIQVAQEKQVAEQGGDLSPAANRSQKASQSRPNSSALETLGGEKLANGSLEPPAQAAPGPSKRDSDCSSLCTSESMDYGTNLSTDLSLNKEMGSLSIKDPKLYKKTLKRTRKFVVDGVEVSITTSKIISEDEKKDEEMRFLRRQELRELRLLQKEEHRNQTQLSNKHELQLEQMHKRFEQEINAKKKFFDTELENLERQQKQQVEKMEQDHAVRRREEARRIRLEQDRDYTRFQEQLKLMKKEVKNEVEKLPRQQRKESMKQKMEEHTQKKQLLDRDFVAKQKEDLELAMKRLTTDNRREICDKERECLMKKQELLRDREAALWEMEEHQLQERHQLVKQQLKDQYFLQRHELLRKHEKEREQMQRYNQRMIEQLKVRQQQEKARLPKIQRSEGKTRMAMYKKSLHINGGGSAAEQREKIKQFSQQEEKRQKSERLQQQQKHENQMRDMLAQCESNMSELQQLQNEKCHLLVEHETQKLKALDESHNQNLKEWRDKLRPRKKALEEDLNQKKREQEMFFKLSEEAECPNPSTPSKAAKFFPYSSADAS

Chain of Rho-associated protein kinase 2 (O75116 whole entry, looked up): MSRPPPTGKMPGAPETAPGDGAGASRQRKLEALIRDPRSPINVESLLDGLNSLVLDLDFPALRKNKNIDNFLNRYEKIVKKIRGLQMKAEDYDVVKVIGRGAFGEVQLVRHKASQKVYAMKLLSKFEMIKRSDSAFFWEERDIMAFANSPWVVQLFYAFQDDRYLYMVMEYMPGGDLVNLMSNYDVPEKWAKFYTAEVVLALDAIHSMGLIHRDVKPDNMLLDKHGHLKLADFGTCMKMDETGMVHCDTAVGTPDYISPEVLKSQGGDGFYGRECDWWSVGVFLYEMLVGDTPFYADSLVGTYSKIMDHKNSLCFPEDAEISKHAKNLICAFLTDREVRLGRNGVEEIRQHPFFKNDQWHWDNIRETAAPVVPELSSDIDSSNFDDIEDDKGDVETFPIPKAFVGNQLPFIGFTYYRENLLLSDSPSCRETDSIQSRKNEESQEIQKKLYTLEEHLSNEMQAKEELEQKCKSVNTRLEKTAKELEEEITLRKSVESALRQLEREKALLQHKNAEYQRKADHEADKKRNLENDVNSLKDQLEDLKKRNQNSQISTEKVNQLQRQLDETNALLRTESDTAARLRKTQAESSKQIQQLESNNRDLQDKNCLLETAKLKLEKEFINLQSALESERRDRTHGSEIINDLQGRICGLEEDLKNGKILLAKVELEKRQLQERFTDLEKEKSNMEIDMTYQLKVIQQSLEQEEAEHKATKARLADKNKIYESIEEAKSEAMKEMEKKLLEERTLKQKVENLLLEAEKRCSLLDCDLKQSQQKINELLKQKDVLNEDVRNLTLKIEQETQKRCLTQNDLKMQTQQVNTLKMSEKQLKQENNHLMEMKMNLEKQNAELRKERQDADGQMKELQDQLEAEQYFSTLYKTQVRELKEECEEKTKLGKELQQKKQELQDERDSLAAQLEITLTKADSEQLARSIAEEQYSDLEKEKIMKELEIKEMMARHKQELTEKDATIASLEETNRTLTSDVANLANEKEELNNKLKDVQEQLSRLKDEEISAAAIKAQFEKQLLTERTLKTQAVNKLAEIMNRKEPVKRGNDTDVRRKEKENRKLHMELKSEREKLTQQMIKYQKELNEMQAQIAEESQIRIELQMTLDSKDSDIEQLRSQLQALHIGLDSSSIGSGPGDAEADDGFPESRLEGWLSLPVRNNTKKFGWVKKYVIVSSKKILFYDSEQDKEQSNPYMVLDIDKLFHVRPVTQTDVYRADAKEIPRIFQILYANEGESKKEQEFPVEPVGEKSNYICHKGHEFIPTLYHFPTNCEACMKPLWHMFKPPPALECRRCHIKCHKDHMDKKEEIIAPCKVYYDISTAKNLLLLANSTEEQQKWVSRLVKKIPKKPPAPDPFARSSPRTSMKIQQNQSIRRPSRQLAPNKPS
Chain of Macrophage-stimulating protein receptor (Q04912 25-304 limits assumed): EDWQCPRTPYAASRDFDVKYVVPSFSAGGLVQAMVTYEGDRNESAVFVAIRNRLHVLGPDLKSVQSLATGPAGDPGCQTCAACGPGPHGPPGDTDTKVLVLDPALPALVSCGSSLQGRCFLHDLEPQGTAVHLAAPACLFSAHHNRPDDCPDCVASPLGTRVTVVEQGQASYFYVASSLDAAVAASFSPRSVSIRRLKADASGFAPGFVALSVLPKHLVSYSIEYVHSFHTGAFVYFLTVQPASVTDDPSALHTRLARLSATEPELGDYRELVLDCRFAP
Chain of Macrophage-stimulating protein receptor (Q04912 310-1400 limits assumed): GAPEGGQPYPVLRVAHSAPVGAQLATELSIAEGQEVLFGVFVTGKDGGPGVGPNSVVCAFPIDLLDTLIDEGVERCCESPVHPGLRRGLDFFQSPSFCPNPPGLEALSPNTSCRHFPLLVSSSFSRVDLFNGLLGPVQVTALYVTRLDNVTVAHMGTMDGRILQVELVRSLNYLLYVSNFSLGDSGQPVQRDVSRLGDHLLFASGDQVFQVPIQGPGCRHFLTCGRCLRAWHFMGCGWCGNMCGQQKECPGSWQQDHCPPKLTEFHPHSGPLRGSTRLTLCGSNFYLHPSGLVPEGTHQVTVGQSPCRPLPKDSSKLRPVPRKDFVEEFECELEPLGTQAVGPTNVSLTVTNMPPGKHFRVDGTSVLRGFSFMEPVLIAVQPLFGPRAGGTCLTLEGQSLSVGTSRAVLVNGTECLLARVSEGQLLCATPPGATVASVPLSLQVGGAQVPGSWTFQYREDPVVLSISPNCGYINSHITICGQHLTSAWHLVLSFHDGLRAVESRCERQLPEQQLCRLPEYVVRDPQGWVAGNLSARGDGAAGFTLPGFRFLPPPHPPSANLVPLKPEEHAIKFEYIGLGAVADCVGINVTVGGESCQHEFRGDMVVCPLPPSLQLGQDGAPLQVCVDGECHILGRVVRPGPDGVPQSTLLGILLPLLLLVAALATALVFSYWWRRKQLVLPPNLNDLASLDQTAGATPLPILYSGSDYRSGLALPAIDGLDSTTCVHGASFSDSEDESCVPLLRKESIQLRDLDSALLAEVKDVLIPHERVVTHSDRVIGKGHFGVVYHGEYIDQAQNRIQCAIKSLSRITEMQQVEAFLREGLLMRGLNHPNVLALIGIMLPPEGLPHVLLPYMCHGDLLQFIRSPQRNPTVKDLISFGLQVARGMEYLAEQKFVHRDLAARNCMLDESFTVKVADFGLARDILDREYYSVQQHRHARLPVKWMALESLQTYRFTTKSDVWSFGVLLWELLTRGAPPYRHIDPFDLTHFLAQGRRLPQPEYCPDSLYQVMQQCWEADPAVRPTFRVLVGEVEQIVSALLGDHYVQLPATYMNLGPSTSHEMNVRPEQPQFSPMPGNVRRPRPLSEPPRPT
Chain of Tyrosine-protein kinase BTK (Q06187 whole entry): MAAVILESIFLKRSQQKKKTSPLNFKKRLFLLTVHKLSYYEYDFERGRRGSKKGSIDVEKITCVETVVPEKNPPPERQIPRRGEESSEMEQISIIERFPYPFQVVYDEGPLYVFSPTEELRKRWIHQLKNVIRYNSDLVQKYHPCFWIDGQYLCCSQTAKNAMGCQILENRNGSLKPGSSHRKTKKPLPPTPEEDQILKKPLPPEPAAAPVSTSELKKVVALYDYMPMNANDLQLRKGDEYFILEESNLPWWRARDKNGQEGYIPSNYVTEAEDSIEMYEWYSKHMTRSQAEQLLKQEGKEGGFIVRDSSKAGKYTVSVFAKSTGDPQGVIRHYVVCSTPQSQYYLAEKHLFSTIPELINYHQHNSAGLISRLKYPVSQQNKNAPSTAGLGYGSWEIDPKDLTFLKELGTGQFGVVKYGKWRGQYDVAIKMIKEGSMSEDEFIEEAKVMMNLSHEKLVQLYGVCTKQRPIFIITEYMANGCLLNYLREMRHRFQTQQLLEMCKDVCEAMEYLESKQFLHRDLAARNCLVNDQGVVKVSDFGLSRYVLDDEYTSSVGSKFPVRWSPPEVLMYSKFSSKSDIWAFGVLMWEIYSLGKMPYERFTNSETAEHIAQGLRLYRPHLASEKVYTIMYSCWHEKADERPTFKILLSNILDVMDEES
Chain of Serine/threonine-protein kinase PLK1 (P53350 whole entry): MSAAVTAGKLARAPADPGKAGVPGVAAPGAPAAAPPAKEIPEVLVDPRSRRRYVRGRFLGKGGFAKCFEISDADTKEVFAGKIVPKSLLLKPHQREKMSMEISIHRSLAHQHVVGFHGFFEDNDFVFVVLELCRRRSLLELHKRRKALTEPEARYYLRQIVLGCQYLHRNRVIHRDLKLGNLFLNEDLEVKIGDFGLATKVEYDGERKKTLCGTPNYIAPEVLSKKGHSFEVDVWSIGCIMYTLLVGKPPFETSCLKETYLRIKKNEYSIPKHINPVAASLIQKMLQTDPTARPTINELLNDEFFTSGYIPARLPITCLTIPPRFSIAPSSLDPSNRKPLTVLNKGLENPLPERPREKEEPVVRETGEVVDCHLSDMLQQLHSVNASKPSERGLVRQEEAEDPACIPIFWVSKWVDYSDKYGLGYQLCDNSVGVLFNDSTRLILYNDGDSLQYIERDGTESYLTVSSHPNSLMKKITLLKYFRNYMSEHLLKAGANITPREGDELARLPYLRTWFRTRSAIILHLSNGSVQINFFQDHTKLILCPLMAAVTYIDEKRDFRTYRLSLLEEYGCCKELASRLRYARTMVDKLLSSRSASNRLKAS

## CCN(CC)CCCCNc1ncc2cc(-c3cc(OC)cc(OC)c3)c(NC(=O)NC(C)(C)C)nc2n1
[1]
  % of control: 100%
[2]
  % of control: 100%

## COc1cc(N(C)c2ccnc3ccc(C(F)(F)F)cc23)cc(OC)c1OC
[3]
  % binding: 85%

## CC[C@@H]1[C@H](F)C(=O)N[C@@H]1COc1nccc2cc(C(N)=O)c(OC)cc12 [ZIMLOVISERTIB]
[4]; at 0.01 µM
  % of inhibition: -1%
[4]; at 0.04 µM
  % of inhibition: 3.1%
[4]; at 0.2 µM
  % of inhibition: -5.7%
[4]; at 1 µM
  % of inhibition: -1%
[4]; at 5 µM
  % of inhibition: -1.4%
[5]
  % of inhibition: -9.7%

## CNC(=O)Nc1ccc(-c2nc(N3CC4CCC(C3)O4)c3cnn(C4CCC5(CC4)OCCO5)c3n2)cc1
[6]
  % of control: 97%
[7]
  % of inhibition: 3%

## COc1cc(Nc2nc(C)cc(-c3cnn4nc(OC)ccc34)n2)cc(C(F)(F)F)c1
[8]
  % of control: 94%

## COCC(=O)NC/C=C/c1ccc2ncnc(Nc3ccc(Oc4ccc(C)nc4)c(C)c3)c2c1 [CP-724714]
[9]
  % of control: 68%

## C=CC(=O)Nc1cc(-n2c(=O)ccc3cnc4ccc(-c5ccc(NS(C)(=O)=O)cc5)cc4c32)ccc1C
[10]; at 1 µM
  % of control: 87%
[10]; at 10 µM
  % of control: 79%

## N#Cc1cccc(-c2c[nH]c3ncnc(N4CCOCC4)c23)c1
[11]
  % of inhibition: 77%
